Test results taken from PMC7038240 (Antimicrobial Agents and Chemotherapy, 2020).
Like-named read-outs stand apart in the source and are kept apart here.

What was measured:
Experiment in all cases: microbe, parasite or virus in culture
Type in all cases: cell-based
[1] = test system: C. freundii; conditions: Citrobacter freundii
[2] = test system: E. coli; conditions: Escherichia coli, read-out: MIC
[3] = test system: K. aerogenes; conditions: Klebsiella aerogenes
[4] = test system: K. oxytoca; conditions: Klebsiella oxytoca, read-out: MIC
[5] = test system: K. pneumoniae; conditions: Klebsiella pneumoniae, read-out: MIC

Measured: MIC

Cn1c(N)c(NC(=O)NCCN)c[n+]1CC1=C(C(=O)O)N2C(=O)[C@@H](NC(=O)/C(=N\OC(C)(C)C(=O)[O-])c3nsc(N)n3)[C@H]2SC1 [TOL]
4 µg/mL: [3]; strain 73546, AmpC | [3]; strain 111707, AmpC/TEM-1
32 µg/mL: [2]; strain 849121, KPC | [2]; strain SI-LP377, CTX-M-2
2 µg/mL: [2]; strain VER, OXA-48
≥ 256 µg/mL: [2]; strain 1275635, VIM-23 | [2]; strain 1459453, NDM-7 | [2]; strain CDC-0069, NDM | [2]; strain CDC-0149, NDM | [4]; strain 847537, KPC | [5]; strain 6299, OXA-163 | [5]; strain 196477, AmpC | [5]; strain 752334, OXA-48 | [5]; strain 845661, KPC | [5]; strain 848562, KPC | [5]; strain 848600, KPC | [5]; strain 856819, SHV-11/VIM-1 | [5]; strain 864085, KPC | [5]; strain 871489, KPC | [5]; strain 874328, SHV-11/CTX-M-15/NDM-1 | [5]; strain 882956, SHV-31/DHA-1/VIM-1 | [5]; strain 890066, SHV-33/TEM-33/CTX-M-15/IMP-1 | [5]; strain 892694, SHV-12/TEM-1/CTX-M-15/OXA-48/ACT | [5]; strain 919877, SHV-OSBL/VIM-1 | [5]; strain 1104864, SHV-OSBL(b)/VIM-1 | [5]; strain 1104866, SHV-OSBL(b)/VIM-1 | [5]; strain 1280442, SHV-OSBL(b)/VIM-1
128 µg/mL: [2]; strain 664522, OXA-48 | [2]; strain 873435, CTX-M-15 | [2]; strain ESBL 5, CTX-M-15/TEM-1 | [5]; strain 515746, OXA-48 | [5]; strain 664438, OXA-48 | [5]; strain 664439, OXA-48 | [5]; strain 769972, OXA-48 | [5]; strain 848828, KPC | [5]; strain 849170, KPC | [5]; strain 873460, SHV-30/CTX-M-15 | [5]; strain 882752, SHV-11/TEM-1/KPC-3 | [5]; strain CDC-0003, KPC
16 µg/mL: [1]; strain 241181, AmpC/TEM-163 | [2]; strain 1924, TEM-12 | [2]; strain 875627, CTX-M-27 | [2]; strain EC1552 2A, AmpC/CMY-2/TEM-1, CTX-M-15
8 µg/mL: [1]; strain 134390, AmpC/TEM-1 | [2]; strain 469, AmpC/SHV-12/TEM-1 | [2]; strain 890500, TEM-1/CTX-M-14 | [2]; strain SI-PO26, AmpC/CMY-2/TEM-1 | [2]; strain SI-V502, TEM-29/CTX-M-15 | [4]; strain 134943, CMY-2/TEM-1 | [5]; strain 212027, AmpC/FOX-5/TEM-1
64 µg/mL: [2]; strain 664507, OXA-48 | [2]; strain 664516, OXA-48 | [2]; strain 664520, OXA-48 | [2]; strain 664523, OXA-48 | [2]; strain 878358, TEM-1/CTX-M | [2]; strain CDC-0001, KPC | [2]; strain SI-M004, SHV-2/GES-12 | [3]; strain 110099, AmpC/SHV-12 | [5]; strain 137052, SHV-11/KPC-3/TEM-1 | [5]; strain 178279, SHV-12/TEM-1/AmpC | [5]; strain 722870, OXA-48 | [5]; strain 787422, OXA-48 | [5]; strain 847204, KPC | [5]; strain 884679, KPC
